Assay results reported in PubChem BioAssay (NCI).
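Growth conditions: 96-well plates. Treatment: test compound, 48 hours, 5 concentrations. Analysis: linear interpolation between bracketing concentrations; unreached endpoints set to highest concentration. Here, GI50 denotes the concentration required for 50% inhibition of growth. TGI denotes the concentration required for complete inhibition of growth.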 Where a SMILES comes first, the peptide text is derived from it. The star is where a group is joined. Fmoc = O=C(OCC1c2ccccc2-c2ccccc21)*; OBn = c1ccc(CO*)cc1; tBu = CC(C)(C)*

Assays:
Assay in all cases: growth of human tumour cells (NCI), 48 h
SF-539 CNS = system: SF-539 CNS
MCF7 breast = system: MCF7 breast
K-562 leukemia = system: K-562 leukemia
NCI-H23 lung = system: NCI-H23 lung
HOP-62 NSCLC = system: HOP-62 NSCLC
T-47D breast = system: T-47D breast
HCT-116 colon = system: HCT-116 colon
UO-31 renal = system: UO-31 renal
KM12 colon = system: KM12 colon
SNB-75 CNS = system: SNB-75 CNS

Row | Structure (SMILES) | TGI (SF-539 CNS) [µM] | TGI (MCF7 breast) [µM] | TGI (K-562 leukemia) [µM] | TGI (NCI-H23 lung) [µM] | TGI (HOP-62 NSCLC) [µM] | TGI (T-47D breast) [µM] | TGI (HCT-116 colon) [µM] | TGI (UO-31 renal) [µM] | TGI (KM12 colon) [µM] | TGI (SNB-75 CNS) [µM] | GI50 (SF-539 CNS) [µM] | GI50 (MCF7 breast) [µM] | GI50 (K-562 leukemia) [µM] | GI50 (NCI-H23 lung) [µM] | GI50 (HOP-62 NSCLC) [µM] | GI50 (T-47D breast) [µM] | GI50 (HCT-116 colon) [µM] | GI50 (UO-31 renal) [µM] | GI50 (KM12 colon) [µM] | GI50 (SNB-75 CNS) [µM]
1 | COC(=O)c1sc2c(Cl)c(Cl)sc2c1Cl | > 100 | > 100 | > 100 | > 100 | > 100 | > 100 | > 100 | > 100 | > 100 | > 100 | – | – | – | – | – | – | – | – | – | –
2 | c1csc(-c2cc(-c3ccsc3)cs2)c1 | > 100 | > 100 | > 100 | 93.8 | > 100 | > 100 | > 100 | > 100 | > 100 | > 100 | – | – | – | – | – | – | – | – | – | –
3 | CCOC(=O)C(NC(=O)c1ccccc1)(Nc1ccc(S(=O)(=O)Nc2cc(C)on2)cc1)C(F)(F)F (stereo unspecified) | > 100 | > 100 | > 100 | > 10 | > 100 | > 100 | > 100 | > 100 | > 100 | > 100 | – | – | – | – | – | – | – | – | – | –
4 | Cc1c(-c2ccccc2)oc(=O)c2ccccc12 | 36.2 | > 100 | > 100 | 56.6 | 43.5 | 75.7 | 56.4 | 43.7 | 51.9 | 31.1 | – | – | – | – | – | – | – | – | – | –
5 | CCOc1ccc(Nc2nc(N)nc(N)c2N=O)cc1 | > 100 | > 100 | > 100 | > 100 | > 100 | > 100 | > 100 | 83.3 | > 100 | 91.7 | – | – | – | – | – | – | – | – | – | –
6 | O=c1c2ccccc2n2nnc3ccc(NCCNCCO)c1c32 | 14.6 | 14.9 | 21.7 | 8.85 | 8.91 | 29.1 | 10.3 | 3.78 | 7.44 | 7.54 | – | – | – | – | – | – | – | – | – | –
7 | COc1cc2c(cc1OC)C(C1CC1)ON(C)CC2 (stereo unspecified) | > 100 | > 100 | > 100 | > 100 | > 100 | > 100 | > 100 | > 100 | > 100 | > 100 | – | – | – | – | – | – | – | – | – | –
8 | COc1cc(/C=C2\C(=O)N(c3ccc(Cl)cc3)C(c3ccccc3)S2(=O)=O)cc(OC)c1OC (stereo unspecified) | > 100 | > 63.6 | > 100 | > 100 | > 96.7 | > 100 | > 100 | > 100 | 99.3 | > 100 | – | – | – | – | – | – | – | – | – | –
9 | FC(F)(Sc1ncccn1)c1nc2ccccc2o1 | > 100 | > 100 | > 100 | > 100 | > 100 | > 100 | > 100 | > 100 | > 100 | 81.2 | – | – | – | – | – | – | – | – | – | –
10 | COc1cc(C2C3=C(NC(=O)C2C#N)c2ccc4ccccc4c2OCC3)cc(OC)c1OC (stereo unspecified) | 42.3 | > 100 | > 100 | > 100 | 50.5 | 62.5 | 29.1 | 28.3 | > 100 | 34.5 | – | – | – | – | – | – | – | – | – | –
11 | CC1CC(C)(C)CC(OCCN2CCCCC2)(c2ccccc2)C1 (stereo unspecified) | 29.4 | 26.4 | 28.7 | 32.6 | 26.5 | 29.5 | 18.9 | 20.6 | 21.4 | 28.8 | – | – | – | – | – | – | – | – | – | –
12 | Oc1ccccc1/C=N/c1nc(-c2ccccc2)cs1 | 94.3 | 40.8 | 68 | 41.8 | > 100 | > 100 | 34.4 | > 100 | > 100 | > 100 | 27.5 | 14.1 | 19.6 | 18.4 | > 100 | > 100 | 12.4 | 44.7 | 51 | > 100
13 | CC(C)(C)[C@H]1NC(=O)CN1C(=O)OCc1ccccc1 | > 100 | > 100 | > 100 | > 100 | > 100 | > 100 | > 100 | > 100 | > 100 | > 100 | – | – | – | – | – | – | – | – | – | –
14 | CCOC(=O)CSc1nc(-c2ccc(Cl)cc2)c(C#N)c(=O)[nH]1 | > 100 | > 100 | > 100 | > 100 | > 100 | > 100 | > 100 | > 100 | > 100 | > 100 | – | – | – | – | – | – | – | – | – | –
15 | COc1ccc(/C=C2\N=C3N(Cc4ccccc4)C=C(N)N3C2=O)cc1 | > 100 | > 100 | > 100 | > 100 | > 100 | > 100 | > 100 | > 100 | > 100 | 50.7 | – | – | – | – | – | – | – | – | – | –
16 | COc1ccc(C2CC(c3cccc(Nc4ccncc4)c3)=NN2c2ccccc2)cc1 (stereo unspecified) | 3.04 | 4.01 | 5.05 | 3.87 | 5.81 | 5.83 | 3.29 | 2.92 | 3.5 | 5.23 | 1.61 | 1.87 | 2 | 1.88 | 2.25 | 2.3 | 1.68 | 1.41 | 1.79 | 1.55
17 | Nc1c(-c2ccccc2)c2ccc([N+](=O)[O-])cc2c(=O)n1-c1cccc(C(=O)O)c1 | > 100 | > 100 | > 100 | > 100 | > 100 | > 100 | > 100 | > 100 | > 100 | > 100 | – | – | – | – | – | – | – | – | – | –
18 | COc1cc2c(cc1OCCN1CCN(CCOc3cc4c(cc3OC)C(=O)N3CCC[C@H]3C=N4)CC1)N=C[C@@H]1CCCN1C2=O | > 64.3 | > 100 | > 60.5 | 46 | > 100 | > 100 | > 86.8 | > 73.7 | > 75.3 | > 100 | – | – | – | – | – | – | – | – | – | –
19 | CCOC(=O)CCC(C(=O)OCC)n1nnc2cc(Nc3c(C)[n+]([O-])c4cc(Cl)ccc4[n+]3[O-])ccc21 (stereo unspecified) | > 100 | 80 | > 100 | > 100 | > 100 | > 100 | > 100 | > 100 | > 100 | > 100 | – | – | – | – | – | – | – | – | – | –
20 | CC(=O)CCN1CC2CN=NC2(C#N)C1 (stereo unspecified) | > 100 | > 100 | > 48.2 | > 100 | > 100 | > 100 | > 100 | > 100 | > 100 | > 100 | > 100 | – | – | – | – | – | – | – | – | –
21 | c1ccc(CN2CCC(CNc3ncnc4ccccc34)C2)cc1 (stereo unspecified) | > 100 | > 100 | > 100 | > 100 | > 100 | > 100 | > 100 | > 100 | > 100 | > 100 | – | – | – | – | – | – | – | – | – | –
22 | C=C(C)C1CCC2(C)C1CCC1(C)C2CCC2C3(C)C4OC(OC4=O)C(C)(C)C3CCC21C (stereo unspecified) | > 100 | > 100 | > 100 | > 100 | > 100 | > 100 | > 100 | > 100 | > 100 | > 100 | – | – | – | – | – | – | – | – | – | –
23 | CCOC(=O)/C=C(/OCC)[C@@H]1C(C(=O)c2ccc(Cl)cc2)[C@@H]1/C(=C\C(=O)OCC)OCC (stereo partly specified) | > 100 | > 100 | > 22.3 | 81.8 | > 100 | > 100 | > 100 | > 91 | > 51.3 | > 100 | – | – | – | – | – | – | – | – | – | –
24 | CN=C1C=C(/N=C2/C=C(N/C(=C\C#N)C(C)(C)O)OC2(C)C)OC1(C)C | > 100 | > 100 | 80.4 | > 100 | > 100 | > 100 | 69.4 | 82.3 | > 100 | > 64 | – | – | – | – | – | – | – | – | – | –
25 | C[N+](C)([O-])C12CC3CC(CC(C3)C1)C2 | > 100 | > 100 | > 100 | > 100 | > 100 | 85.7 | 91.2 | 80.6 | > 100 | > 100 | – | – | – | – | – | – | – | – | – | –
26 | Clc1ccc(-c2nn3c(COc4ccc(OCc5nnc6sc(-c7ccc(Cl)cc7)nn56)c(Cl)c4)nnc3s2)cc1 | > 100 | > 100 | > 100 | 62.3 | 77.7 | > 100 | > 100 | 42.1 | > 100 | 29.8 | – | – | – | – | – | – | – | – | – | –
27 | Cc1cc(C)n(C(=CC(=O)C(Cl)Cl)n2nc(C)cc2C)n1 | 14.1 | > 100 | 7.42 | 13.2 | 17.5 | 28.6 | 6.81 | 27.6 | 24 | > 100 | – | – | – | – | – | – | – | – | – | –
28 | O=C(O)C1C2OC(C(Br)C2Br)C1C(=O)O (stereo unspecified) | > 100 | > 100 | > 100 | > 100 | > 100 | > 100 | > 100 | > 100 | > 100 | > 100 | – | – | – | – | – | – | – | – | – | –
29 | CC(OC(C)(C)C)C(NC(=O)OCC1c2ccccc2-c2ccccc21)C(=O)NC(Cc1ccccc1)C(=O)OCc1ccccc1 (stereo unspecified) (Fmoc-Thr(tBu)-Phe-OBn; configuration not given here) | > 100 | > 100 | > 100 | > 100 | > 100 | > 100 | > 100 | > 100 | > 100 | > 100 | – | – | – | – | – | – | – | – | – | –
30 | CC(C)(C)OC(=O)N1CCC2(CC1)C(=O)NCN2c1ccccc1 | > 100 | > 100 | > 100 | > 100 | > 100 | > 100 | > 100 | > 100 | > 100 | > 100 | – | – | – | – | – | – | – | – | – | –
